Measurements from PubChem BioAssay (NCI).
“And” between values parts separate entries of the source, which are not always exact repeats. Equal entries are not always repeated.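 Values below derive from 48-hour exposures of cells grown in 96-well plates, with endpoints linearly interpolated between the two concentrations bracketing the appropriate inhibition level. The concentration for 50% growth inhibition is given as GI50. At the TGI there is no net growth.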

Assays:
Experiment in all cases: NCI anticancer screen, dose series, 48 h
NCI/ADR-RES ovarian = test system: NCI/ADR-RES ovarian
DLD-1 colon = test system: DLD-1 colon
KM20L2 colon = test system: KM20L2 colon
A549 NSCLC = test system: A549 NSCLC
NCI-H522 lung = test system: NCI-H522 lung
SNB-19 CNS = test system: SNB-19 CNS
RXF 393 renal = test system: RXF 393 renal
CCRF-CEM leukemia = test system: CCRF-CEM leukemia
OVCAR-8 ovarian = test system: OVCAR-8 ovarian
HS 578T breast = test system: HS 578T breast

| SMILES | TGI (NCI/ADR-RES ovarian) | GI50 (DLD-1 colon) [µM] | TGI (DLD-1 colon) | GI50 (KM20L2 colon) [µM] | TGI (KM20L2 colon) [µM] | GI50 (A549 NSCLC) | TGI (A549 NSCLC) | TGI (NCI-H522 lung) | GI50 (SNB-19 CNS) [µM] | TGI (SNB-19 CNS) | TGI (RXF 393 renal) [µM] | TGI (CCRF-CEM leukemia) | TGI (OVCAR-8 ovarian) | GI50 (NCI/ADR-RES ovarian) [µM] | GI50 (NCI-H522 lung) [µM] | TGI (HS 578T breast) [µM] | GI50 (RXF 393 renal) [µM] | GI50 (CCRF-CEM leukemia) [µM] | GI50 (OVCAR-8 ovarian) [µM] |
| --- | --- | --- | --- | --- | --- | --- | --- | --- | --- | --- | --- | --- | --- | --- | --- | --- | --- | --- | --- |
| Cc1c2ccncc2c(C)c2c1[nH]c1ccc(Cl)cc12 | 4.75 µM | 1.67 | 8.14 µM and 4.89 µM | 3.06 | 9.55 | 3.27 µM and 3.56 µM | 11.2 µM and 15.2 µM | 9.18 µM and 17.1 µM | 3 | 8.36 µM and 15.5 µM | 9.91 | 4.43 µM and 6.3 µM | 4.35 µM and 2.62 µM |  |  |  |  |  |  |
| CC(/C=N/N=C(N)N)=N\N=C(N)N | 61.1 µM and 126 µM |  | 2500 µM | 47.6 | 411 | > 52.4 µM | 1780 µM | 248 µM | 14.5 | 722 µM | 734 | > 78.5 µM and 1300 µM | > 76 µM and 378 µM | 20.8 | 25.1 | 169 | > 45.6 | 18.8 | 11.6 |
| COC(=O)/C(=N\Nc1nnc(C)n1N)C(C#N)c1ccccc1 (centres undefined) | > 100 µM |  | > 100 µM |  | > 100 |  | > 100 µM | > 100 µM |  | > 100 µM | > 100 | > 100 µM | > 100 µM |  |  | > 100 |  |  |  |
| N#C/C(=C\c1ccc2[nH]ccc2c1)C(=O)c1ccc(O)c(O)c1 | > 100 µM |  | > 100 µM |  | > 100 |  | > 100 µM | > 100 µM |  | > 100 µM | > 100 | > 85 µM | > 100 µM |  |  | > 100 |  |  |  |
| COc1ccc2c([nH]c3c(O)c(-c4c(C)cc5c([nH]c6c(CC=C(C)C)c(OC)ccc65)c4O)c(C)cc32)c1CC=C(C)C |  |  | > 100 µM |  | > 100 |  | > 100 µM | > 100 µM |  | > 100 µM | > 100 | > 100 µM | > 100 µM |  |  |  |  |  |  |
